# Measured values as given in patent publication US20240391882A1 (Mirati Therapeutics, Inc., priority 2023, published 2024).
# Read-outs that look alike come from different tables or passages of the source.
# Tests used:
# Assay type in all cases: cell-based
# [1] = test system: SKBR3 (PI3Kα wild type) cells; assay: Cell viability (CellTiter-Glo 2.0) in SKBR3 cells; conditions: Homo sapiens
# Procedure, shortened: (§1)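 SKBR3 or T47D cells, 1000 per well, were seeded overnight and then exposed ~72 h at 37° C to 10 concentrations of compound, 1:4 dilutions from 10 μm. Viability read by CellTiter-Glo luminescence as percent of vehicle; IC50 from four-parameter variable-slope fit.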
# [2] = test system: T47D (PI3Kα H1047R mutant) cells; assay: Cell viability (CellTiter-Glo 2.0) in T47D cells; conditions: Homo sapiens, approximately 72 hours
# Procedure, shortened: as §1
# [3] = test system: pAKT in T47D (PI3Kα H1047R mutant) cells; assay: Inhibition of pAKT (alphaLISA Surefire Ultra AKT 1/2/3 pS473) in T47D cells; conditions: Homo sapiens, read-out: T47D (H1047R) pAKT 24 hr (IC50)
# Procedure, shortened: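 Cells in HBSS were dosed from 10.4 μm (1:4 serial dilution, 10 concentrations) and incubated about 24 hours at 37° C, then lysed. pAKT S473 measured by alphaLISA after overnight bead incubation. Signal normalised to alpelisib (3.125 μm) and DMSO controls; IC50 from four-parameter fit.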
# [4] = SK-BR-3, SKBR3 (PI3Kα wild type) cells, approximately 72 hours, CellTiter-Glo 2.0, read-out: SKBR3 (WT) Viability IC50
# [5] = T47D (PI3Kα H1047R mutant) cells, 24 hr compound incubation, alphaLISA pS473
SMILES,"IC50 ([1]; SK-BR-3, 72 h, read-out: SKBR3 (WT) Viability IC50 (nM))",IC50 [2],"IC50 ([3]; T47D, 24 h)","IC50 [1, 4]","IC50 ([2]; T47D, 72 h)","IC50 [3, 5]"
"Cc1cc([C@@H](C)Nc2ccc(Cl)nc2C(=O)O)c2nc(N3CCC(F)(F)CC3)c(C#N)nc2c1 [Example 5, (R)-6-chloro-3-((1-(2-cyano-3-(4,4-difluoropiperidin-1-yl)-7-methylquinoxalin-5-yl)ethyl)amino)picolinic acid]",3970 nM,37.3 nM,0.8 nM,–,–,–
"Cc1cc([C@@H](C)Nc2ccc(Cl)nc2C(=O)O)c2nc(N3CCO[C@H](C(F)(F)F)C3)c(C#N)nc2c1 [Example 190A, 6-chloro-3-(((R)-1-(2-cyano-7-methyl-3-((S)-2-(trifluoromethyl)morpholino)quinoxalin-5-yl)ethyl)amino)picolinic acid]",–,–,–,> 10000 nM,271 nM,4.4 nM
"Cc1cc([C@@H](C)Nc2ccc(Cl)nc2C(=O)O)c2nc(N3CCC4(CC4)C(F)(F)C3)c(C#N)nc2c1 [Example 22, (R)-6-chloro-3-((1-(2-cyano-3-(4,4-difluoro-6-azaspiro[2.5]octan-6-yl)-7-methylquinoxalin-5-yl)ethyl)amino)picolinic acid]",–,–,–,5320 nM,79.3 nM,1.9 nM
"Cc1cc([C@@H](C)Nc2ccccc2C(=O)O)c2nc(N3CC(C)(C)C3)c(C#N)nc2c1 [Example 55, (R)-2-((1-(2-cyano-3-(3,3-dimethylazetidin-1-yl)-7-methylquinoxalin-5-yl)ethyl)amino)benzoic acid]",–,–,–,> 10000 nM,422 nM,21.6 nM
"Cc1cc([C@@H](C)Nc2ccc(Cl)nc2C(=O)O)c2nc(N3CCC[C@@H]([C@H](C)O)C3)c(C#N)nc2c1 [Example 261C, 6-chloro-3-(((R)-1-(2-cyano-3-((R)-3-((S)-1-hydroxyethyl)piperidin-1-yl)-7-methylquinoxalin-5-yl)ethyl)amino)picolinic acid]",–,–,–,> 10000 nM,78 nM,2.1 nM
"Cc1cc([C@@H](C)Nc2ccc(Cl)nc2C(=O)O)c2nc(N3CCC(F)(F)C3)c(C#N)nc2c1 [Example 70, (R)-6-chloro-3-((1-(2-cyano-3-(3,3-difluoropyrrolidin-1-yl)-7-methylquinoxalin-5-yl)ethyl)amino)picolinic acid]",–,–,–,9650 nM,31 nM,2.6 nM
"Cc1cc([C@@H](C)Nc2ccc(Cl)nc2C(=O)O)c2nc(C3CC3)c(C#N)nc2c1 [Example 44, (R)-6-chloro-3-((1-(2-cyano-3-cyclopropyl-7-methylquinoxalin-5-yl)ethyl)amino)picolinic acid]",–,–,–,> 10000 nM,157 nM,2 nM
"Cc1cc([C@@H](C)Nc2ccc(Cl)nc2C(=O)O)c2nc(N3C[C@H](C)OC[C@@H]3C)c(C#N)nc2c1 [Example 237B, 6-chloro-3-(((R)-1-(2-cyano-3-((2S,5S)-2,5-dimethylmorpholino)-7-methylquinoxalin-5-yl)ethyl)amino)picolinic acid]",–,–,–,3800 nM,152 nM,6.1 nM
"Cc1cc([C@@H](C)Nc2ccc(Cl)nc2C(=O)O)c2nc(N3CCO[C@@H](C(F)(F)F)C3)c(C#N)nc2c1 [Example 190B, 6-chloro-3-(((R)-1-(2-cyano-7-methyl-3-((R)-2-(trifluoromethyl)morpholino)quinoxalin-5-yl)ethyl)amino)picolinic acid]",–,–,–,> 10000 nM,764 nM,17.3 nM
"Cc1cc([C@@H](C)Nc2ccc(Cl)nc2C(=O)O)c2nc(N3C[C@H](F)C[C@@H]3C)c(C#N)nc2c1 [Example 246B, 6-chloro-3-(((R)-1-(2-cyano-3-((2S,4R)-4-fluoro-2-methylpyrrolidin-1-yl)-7-methylquinoxalin-5-yl)ethyl)amino)picolinic acid]",–,–,–,4920 nM,61 nM,1.8 nM
"C[C@H](Nc1ccccc1C(=O)O)c1cc(F)cc2nc(C#N)c(N3CCC(F)(F)CC3)nc12 [Example 31, (S)-2-((1-(2-cyano-3-(4,4-difluoropiperidin-1-yl)-7-fluoroquinoxalin-5-yl)ethyl)amino)benzoic acid]",–,–,–,> 10000 nM,> 10000 nM,561 nM
"Cc1cc(C(C)Nc2ccccc2C(=O)O)c2nc(N3Cc4ccccc4C3)c(C#N)nc2c1 (stereo not drawn) [Example 2, 2-((1-(2-cyano-3-(isoindolin-2-yl)-7-methylquinoxalin-5-yl)ethyl)amino)benzoic acid]",–,–,–,> 10000 nM,631 nM,18.2 nM
"Cc1cc([C@@H](C)Nc2ccc(Cl)nc2C(=O)O)c2nc(N3CC4C[C@]4(C(F)(F)F)C3)c(C#N)nc2c1 (single isomer, unassigned) [Example 43B]",–,–,–,4030 nM,271 nM,16.8 nM
"Cc1cc([C@@H](C)Nc2ccc(Cl)nc2C(=O)O)c2nc(N3C[C@@H]4C[C@H]3CC4(F)F)c(C#N)nc2c1 (single isomer, unassigned) [Example 8]",–,–,–,3620 nM,34.1 nM,7.7 nM
"Cc1cc([C@@H](C)Nc2ccc(Cl)nc2C(=O)O)c2nc(N3C[C@H]4CSC[C@H]4C3)c(C#N)nc2c1 [Example 848, 6-chloro-3-(((R)-1-(2-cyano-7-methyl-3-cis-tetrahydro-1h-thieno[3,4-c]pyrrol-5(3H)-ylquinoxalin-5-yl)ethyl)amino)picolinic acid]",–,–,–,7680 nM,90 nM,1.7 nM
"Cc1cc([C@@H](C)Nc2ccccc2C(=O)O)c2nc(N3CCN(C(=O)C[C@@H]4CC4(F)F)CC3)c(C#N)nc2c1 (single isomer, unassigned) [Example 197]",–,–,–,> 10000 nM,105 nM,1.8 nM
"Cc1cc([C@@H](C)Nc2ccc(Cl)nc2C(=O)O)c2nc(N3CCC[C@H]([C@H](C)O)C3)c(C#N)nc2c1 [Example 261A, 6-chloro-3-(((R)-1-(2-cyano-3-((S)-3-((S)-1-hydroxyethyl)piperidin-1-yl)-7-methylquinoxalin-5-yl)ethyl)amino)picolinic acid]",–,–,–,> 10000 nM,79 nM,3.2 nM
"Cc1cc([C@@H](C)Nc2ccccc2C(=O)O)c2nc(N3CCOCC3)c(C#N)nc2c1 [Example 57, (R)-2-((1-(2-cyano-7-methyl-3-morpholinoquinoxalin-5-yl)ethyl)amino)benzoic acid]",–,–,–,> 10000 nM,165 nM,14 nM
"Cc1cc([C@@H](C)Nc2ccccc2C(=O)O)c2nc(NC[C@]3(C)CC3(F)F)c(C#N)nc2c1 (single isomer, unassigned) [Example 75A]",–,–,–,> 10000 nM,701 nM,52 nM
"COC[C@H]1[C@H]2CN(c3nc4c([C@@H](C)Nc5ccc(Cl)nc5C(=O)O)cc(C)cc4nc3C#N)C[C@@H]12 [Example 213, 6-chloro-3-(((R)-1-(2-cyano-3-((1R,5S,6S)-6-(methoxymethyl)-3-azabicyclo[3.1.0]hexan-3-yl)-7-methylquinoxalin-5-yl)ethyl)amino)picolinic acid]",–,–,–,9550 nM,61 nM,0.91 nM
"Cc1cc([C@@H](C)Nc2ccc(Cl)nc2C(=O)O)c2nc(N3C[C@@H](F)[C@@H](C)C3)c(C#N)nc2c1 [Example 245, 6-chloro-3-(((R)-1-(2-cyano-3-((3S,4S)-3-fluoro-4-methylpyrrolidin-1-yl)-7-methylquinoxalin-5-yl)ethyl)amino)picolinic acid]",–,–,–,5510 nM,63 nM,1.1 nM
